SMILES strings stand for the structures.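 Following 48 hours of exposure in 96-well plates, responses at five concentrations were used to interpolate endpoints linearly. At the TGI there is no net growth.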

Test systems include BT-549 breast; CCRF-CEM leukemia; HL-60(TB) leukemia; HT29 colon; IGROV1 ovarian; M14 melanoma; NCI/ADR-RES ovarian; PC-3 prostate; SK-MEL-5 melanoma; T-47D breast.
What all share (assay): inhibition of tumour cell growth, NCI panel, 48 h

Regarding `O=C1CS(=O)(=O)C(c2cccc(Oc3ccccc3)c2)N1c1cccc(Cl)c1` (stereo not given), the TGI in the experiment with BT-549 breast is 93.2 µM; in the experiment with CCRF-CEM leukemia it was above 100 µM; in the experiment with HL-60(TB) leukemia, above 100 µM; in the experiment on HT29 colon, above 100 µM; in the experiment on IGROV1 ovarian it was 69.9 µM; in the experiment with M14 melanoma, 92.2 µM. The TGI is above 100 µM with NCI/ADR-RES ovarian, above 100 µM with PC-3 prostate, 31.1 µM in the experiment with SK-MEL-5 melanoma and above 100 µM in the experiment with T-47D breast.

With `O=S1(=O)C(c2ccccc2)C(N2CCCCC2)C1C1CC2c3ccccc3C1c1ccccc12` (stereo not given), the TGI in the experiment on BT-549 breast is above 100 µM; with CCRF-CEM leukemia, above 24.3 µM; in the experiment with HL-60(TB) leukemia, above 100 µM; with HT29 colon, above 100 µM; in the experiment with IGROV1 ovarian, above 100 µM; in the experiment with M14 melanoma, above 100 µM. The TGI in the experiment on NCI/ADR-RES ovarian, with PC-3 prostate, in the experiment with SK-MEL-5 melanoma and with T-47D breast was above 100 µM each time.

As to `N#CC(c1ccnc(Cl)n1)c1nc2ccccc2s1` (stereo not given), the TGI in the experiment with BT-549 breast was above 26 µM; with CCRF-CEM leukemia, 0.928 µM; in the experiment with HL-60(TB) leukemia it was 5.43 µM; in the experiment on HT29 colon, 10.3 µM; in the experiment on IGROV1 ovarian, above 53.2 µM; with M14 melanoma, 20.4 µM. The TGI amounted to 19.7 µM with NCI/ADR-RES ovarian, 26 µM in the experiment with PC-3 prostate, 3.1 µM with SK-MEL-5 melanoma and 22.4 µM in the experiment on T-47D breast.

For the molecule `CC(C)CCC[C@@H](C)[C@H]1CC[C@H]2[C@@H]3CC[C@H]4C[C@H](N)CC[C@]4(C)[C@H]3CC[C@]12C`, the TGI with BT-549 breast is 67.6 µM; in the experiment with CCRF-CEM leukemia, 8.5 µM; with HL-60(TB) leukemia, 68.6 µM; with HT29 colon it was 54.3 µM; in the experiment on IGROV1 ovarian, 54.3 µM; in the experiment on M14 melanoma it was 38.5 µM. Besides, the TGI in the experiment with NCI/ADR-RES ovarian was 95.3 µM; with PC-3 prostate it was 20.2 µM; with SK-MEL-5 melanoma, 54.3 µM; in the experiment on T-47D breast it was above 100 µM.

For `CC(=O)c1c(SCCN2CCCC2)n(-c2ccccc2)c(=S)n(-c2ccccc2)c1=O`, the TGI in the experiment with BT-549 breast was 28.6 µM; in the experiment with CCRF-CEM leukemia, 4.01 µM; in the experiment with HL-60(TB) leukemia it was 6.93 µM; in the experiment on HT29 colon it was 20.7 µM; in the experiment on IGROV1 ovarian, 19.4 µM; in the experiment on M14 melanoma, 6.63 µM. Besides, the TGI in the experiment on NCI/ADR-RES ovarian is above 85.2 µM; in the experiment on PC-3 prostate, 10.8 µM; with SK-MEL-5 melanoma, 20.8 µM; with T-47D breast, 5.42 µM.

In the case of `CO/C=C(/C(=O)OC)c1ccccc1[C@@H]1CC1c1cccc(F)c1` (stereo not given in full), the TGI in the experiment with BT-549 breast was 61.4 µM; in the experiment on CCRF-CEM leukemia it was 87.7 µM; in the experiment on HL-60(TB) leukemia it was 57.9 µM; in the experiment on HT29 colon it was above 100 µM; with IGROV1 ovarian, 62.8 µM; in the experiment on M14 melanoma, 81.6 µM. Further, the TGI in the experiment with NCI/ADR-RES ovarian is 91.8 µM; in the experiment on PC-3 prostate, above 100 µM; with SK-MEL-5 melanoma, 24.8 µM; with T-47D breast it was above 100 µM.

As for `CC(C)(C)OC(=O)NCC(=O)NC1c2ccsc2/C(=N/O)[C@H]1O` (stereo not given in full), the TGI in the experiment on BT-549 breast, in the experiment on CCRF-CEM leukemia, with HL-60(TB) leukemia, in the experiment on HT29 colon, in the experiment on IGROV1 ovarian and with M14 melanoma was above 100 µM in each case. Moreover, the TGI in the experiment on NCI/ADR-RES ovarian, in the experiment on PC-3 prostate, with SK-MEL-5 melanoma and in the experiment on T-47D breast was above 100 µM in each case.

On to `CC(=O)Oc1c(C)c2c(O)c3c1C1=C(OCOC1=C(C)C3=O)/C(C)=C\C(C)(O)C(O)C(C)C(O)C1C(=O)OC(C(C)C1O)C(C)(O)/C=C/C=C(C)C(=O)N2` (stereo not given), for which the TGI with BT-549 breast was above 100 µM; in the experiment with CCRF-CEM leukemia it was 61.4 µM; with HL-60(TB) leukemia, 7.3 µM; in the experiment on HT29 colon, above 100 µM; in the experiment on IGROV1 ovarian, 52.7 µM; in the experiment on M14 melanoma, above 100 µM. For the same molecule, the TGI in the experiment with NCI/ADR-RES ovarian, in the experiment with PC-3 prostate, in the experiment on SK-MEL-5 melanoma and in the experiment with T-47D breast was above 100 µM in each case.

On to `CCN1C=C/C(=C\C=C/c2cc[n+](CC)c3ccccc23)c2ccccc21`, for which the TGI with BT-549 breast amounted to 51.2 µM; in the experiment with CCRF-CEM leukemia, 30.9 µM; in the experiment with HL-60(TB) leukemia, 15.1 µM; in the experiment with HT29 colon, 13.8 µM; in the experiment on IGROV1 ovarian, 12.4 µM; in the experiment on M14 melanoma, 16.9 µM. For the same molecule, the TGI in the experiment with NCI/ADR-RES ovarian is above 100 µM; in the experiment with PC-3 prostate it was 17.3 µM; with SK-MEL-5 melanoma, 21.2 µM; in the experiment on T-47D breast, 28 µM.
